Measurements published in patent publication EP3960174B1 (priority 2020, dated 2022).

Biological target: T1, AChE (Homo sapiens, UniProt P22303)
T1 construct: purchased Sigma Aldrich, Taufkirchen, D
Assay: biochemical

T1 sequence (P22303 32-614): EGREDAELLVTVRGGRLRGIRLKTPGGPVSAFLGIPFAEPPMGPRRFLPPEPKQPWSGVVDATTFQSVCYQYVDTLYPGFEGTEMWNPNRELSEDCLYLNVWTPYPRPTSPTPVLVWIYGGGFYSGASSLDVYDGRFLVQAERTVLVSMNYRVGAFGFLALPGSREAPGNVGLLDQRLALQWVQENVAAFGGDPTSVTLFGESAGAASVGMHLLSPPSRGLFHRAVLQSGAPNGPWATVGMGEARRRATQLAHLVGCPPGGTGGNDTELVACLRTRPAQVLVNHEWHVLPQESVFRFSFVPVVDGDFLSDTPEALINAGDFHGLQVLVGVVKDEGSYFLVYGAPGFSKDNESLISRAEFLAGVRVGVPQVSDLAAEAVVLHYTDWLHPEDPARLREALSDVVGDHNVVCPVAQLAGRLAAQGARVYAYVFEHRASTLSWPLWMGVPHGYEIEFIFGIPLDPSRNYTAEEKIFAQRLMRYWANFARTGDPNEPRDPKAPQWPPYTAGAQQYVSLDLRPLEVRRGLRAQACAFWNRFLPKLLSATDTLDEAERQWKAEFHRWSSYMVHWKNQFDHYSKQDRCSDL

SMILES | IC50
CC1NC(CCCCCCCCCc2cc(O)ccc2OC2OC(CO)C(O)C(O)C2O)CCC1O (stereo not drawn) [compound 2, tiliamine A] | 172 µM
CC1N=C(CCCCCCCCCCc2cc(O)ccc2OC2OC(CO)C(O)C(O)C2O)CC1O (stereo not drawn) [compound 1, tiliine A] | 231 µM
CC(=O)OC1CCC(CCCCCCCCCc2cc(O)ccc2O[C@@H]2O[C@H](CO)[C@@H](O)[C@H](O)[C@H]2O)NC1C (stereo partly drawn) [compound 3, acetyl-tiliamine A] | 50% inhibition level was not achieved
